Where a name gives a salt, the structure may show the parent alone.
Columns and labels:
IL6 = test: IL-6 Quantification Assay (ELISA), LPS-stimulated RAW 264.7; assay type: cell-based; set-up: inhibition: dose or concentration left out as unconfirmed; settings: Mus musculus, RAW264.7; read-out: IL-6: % inh.
Erk1/2 phosphorylation = test: Erk1/2 Phosphorylation Assay (western blot), Panc-1; assay type: cell-based, human; settings: at 10 μM, * = activation
Procedure: Protocol for Western Erk1/2 Cell-Based Phosphorylation Assay
This assay is referred to as the “Erk1/2 Phosphorylation Assay” throughout this application.
Cell lines: Human tumor-derived pancreatic cancer cell line Panc-1 (expressing KRas G12D mutant) was purchased from American Type Culture Collection and grown in complete DMEM-High Glucose medium, supplemented with penicillin (100 U/mL), streptomycin (100 μg/mL), and 10% heat-inactivated FBS at 37° C. in a humidified incubator with 5% CO2.
Method 1: Cells were plated at 350000 cells/well density in a 12-well plate, allowed 3 hours to adhere to the plate, then starved in the appropriate medium in the presence of 0.5% FBS overnight. The small molecules to be tested were added to the cells in the final concentration of 10 μM in the presence of 0.3% DMSO for 6 hours incubation at 37° C. For IC50 value determination, serial dilutions of compounds were added to cells under the same conditions. Next, cells were stimulated with 1.5 ng/ml EGF for 15 minutes then cells were lysed with lysis buffer containing 1% Triton X-100, EDTA, and Halt™ Protease & Phosphatase Inhibitor Cocktail (Thermo Scientific). Protein concentration was assessed by BCA protein assay (Thermo Scientific). Phosphorylation level of Erk1/2 was determined by western blot.
Method 2: Cells were plated at 350000 cells/well density in a 12-well plate in 10% FBS. The next day small molecules to be tested were added to the cells in the final concentration of 10 μM in the presence of 0.3% DMSO for 6 hours incubation at 37° C. For IC50 value determination, serial dilutions of compounds were added to cells under the same conditions. Next, cells were lysed with lysis buffer containing 1% Triton X-100, EDTA, and Halt™ Protease & Phosphatase Inhibitor Cocktail (Thermo Scientific). Protein concentration was assessed by BCA protein assay (Thermo Scientific). Phosphorylation level of Erk1/2 was determined by western blot.
Western blot protocol: Equal amounts of protein (15-50 μg) were separated by SDS-PAGE and transferred to nitrocellulose membranes (Invitrogen by Thermo Fisher Scientific). The membrane was stained with Ponceau S Stain (Boston BioProducts) to verify uniform protein loading. Membranes were blocked with 10% milk and phosphorylation levels of Erk1/2 were assessed by incubating overnight at 4° C. with anti-phospho-p44/42 (Thr202/Tyr204) antibody (Cell Signaling) followed by HRP-conjugated secondary antibody (Jackson Immunoresearch, West Grove, PA). Bands were incubated in Amersham ECL Prime Western Blotting Detection Reagent (GE Healthcare) and visualized using the ChemiDoc MP imaging system (Bio-Rad).

Compound | inhibition (IL6) [%] | % inh of Erk1/2 phosphorylation in Panc-1 (Erk1/2 phosphorylation)
Cc1c(-c2ccn(C(C)C)n2)cn2nc(-c3nccn3C)nc(Nc3cc(OCCN(C)C)ncn3)c12 [Compound 123, N-(6-(2-(Dimethylamino)ethoxy)pyrimidin-4-yl)-6-(1-isopropyl-1H-pyrazol-3-yl)-5-methyl-2-(1-methyl-1H-imidazol-2-yl)pyrrolo[2,1-f][1,2,4]triazin-4-amine] | 75 to 100 | A* (1-25% activation)
CO[C@H]1C[C@H](Nc2nc(-c3nccn3C)nn3cc(-c4cccnc4)c(C)c23)C1 [Compound 151, N-((1r,3r)-3-Methoxycyclobutyl)-5-methyl-2-(1-methyl-1H-imidazol-2-yl)-6-(pyridin-3-yl)pyrrolo[2,1-f][1,2,4]triazin-4-amine] | 0 | D* (85-100% activation)
COCCO[C@H]1C[C@H](Nc2nc(-c3nccn3C)nn3cc(-c4ccnc(OC)c4)c(C)c23)C1 [Compound 161, N-((1r,3r)-3-(2-Methoxy-ethoxy)cyclo-butyl)-6-(2-methoxy-pyridin-4-yl)-5-methyl-2-(1-methyl-1H-imidazol-2-yl)pyrrolo[2,1-f][1,2,4]triazin-4-amine] | 75 to 100 | A (1-25% inhibition)
Cc1c(-c2ccn(C3CC3)n2)cn2nc(-c3nccn3C)nc(Nc3cc(OCCCO)ccn3)c12 [Compound 149, 3-((2-((6-(1-Cyclopropyl-1H-pyrazol-3-yl)-5-methyl-2-(1-methyl-1H-imidazol-2-yl)pyrrolo[2,1-f][1,2,4]triazin-4-yl)amino)pyridin-4-yl)oxy)propan-1-ol] | 75 to 100 | D* (85-100% activation)
Cc1c(-c2ccn(C)n2)cn2nc(-c3nccn3C)nc(Nc3nccn3C)c12 [Compound 106, 5-Methyl-N,2-bis(1-methyl-1H-imidazol-2-yl)-6-(1-methyl-1H-pyrazol-3-yl)pyrrolo[2,1-f][1,2,4]triazin-4-amine] | 50 to 74 | 0 (0% inhibition)
Cc1c(-c2ccn(C)n2)cn2nc(-c3nccn3C)nc(Nc3ncccn3)c12.Cl [Compound 115, 5-Methyl-2-(1-methyl-1H-imidazol-2-yl)-6-(1-methyl-1H-pyrazol-3-yl)-N-(pyrimidin-2-yl)pyrrolo[2,1-f][1,2,4]triazin-4-amine hydrochloride salt] | 50 to 74 | C (50-84% inhibition)
Cc1c(-c2ccn(C)n2)cn2nc(-c3nccn3C)nc(Cl)c12 [Compound 99, 4-Chloro-5-methyl-2-(1-methyl-1H-imidazol-2-yl)-6-(1-methyl-1H-pyrazol-3-yl)pyrrolo[2,1-f][1,2,4]triazine] | 75 to 100 | D* (85-100% activation)
COCCO[C@H]1C[C@H](Nc2nc(-c3nccn3C)nn3cc(-c4ccn(C)n4)c(C)c23)C1 [Compound 130, N-((1r,3r)-3-(2-Methoxyethoxy)cyclobutyl)-5-methyl-2-(1-methyl-1H-imidazol-2-yl)-6-(1-methyl-1H-pyrazol-3-yl)pyrrolo[2,1-f][1,2,4]triazin-4-amine] | 0 | B* (26-49% activation)
CO[C@H]1C[C@H](Nc2nc(-c3nccn3C)nn3cc(-c4ccncc4)c(C)c23)C1 [Compound 159, N-((1r,3r)-3-Methoxycyclobutyl)-5-methyl-2-(1-methyl-1H-imidazol-2-yl)-6-(pyridin-4-yl)pyrrolo[2,1-f][1,2,4]triazin-4-amine] | 1 to 24 | A (1-25% inhibition)
COc1cc(-c2cn3nc(-c4nccn4C)nc(N[C@H]4C[C@H](OC)C4)c3c2C)ccn1 [Compound 160, N-((1r,3r)-3-Methoxycyclobutyl)-6-(2-methoxypyridin-4-yl)-5-methyl-2-(1-methyl-1H-imidazol-2-yl)pyrrolo[2,1-f][1,2,4]triazin-4-amine] | 75 to 100 | A* (1-25% activation)
CO[C@H]1C[C@H](Nc2nc(-c3nccn3C)nn3cc(-c4cccnc4)c(-c4ccccn4)c23)C1 [Compound 168, N-((1r,3r)-3-Methoxycyclobutyl)-2-(1-methyl-1H-imidazol-2-yl)-5-(pyridin-2-yl)-6-(pyridin-3-yl)pyrrolo[2,1-f][1,2,4]triazin-4-amine] | 1 to 24 | 0 (0% inhibition)
CO[C@H]1CC[C@@H](Nc2nc(-c3ccccn3)nn3cc(-c4ccn(C(C)C)n4)c(C)c23)C1 (racemic) [Compound 9, rac 6-(1-Isopropyl-1H-pyrazol-3-yl)-N-((1R,3S)-3-methoxycyclopentyl)-5-methyl-2-(pyridin-2-yl)pyrrolo[2,1-f][1,2,4]triazin-4-amine] | 1 to 24 | 0 (0% inhibition)
CO[C@H]1C[C@H](Nc2nc(-c3nccn3C)nn3cc(-c4ccn(C)n4)c(C)c23)C1 [Compound 103, N-((1r,3r)-3-Methoxycyclobutyl)-5-methyl-2-(1-methyl-1H-imidazol-2-yl)-6-(1-methyl-1H-pyrazol-3-yl)pyrrolo[2,1-f][1,2,4]triazin-4-amine hydrochloride salt] | 0 | A* (1-25% activation)
COCCOc1cc(Nc2nc(-c3nccn3C)nn3cc(-c4ccn(C(C)C)n4)c(C)c23)ncn1 [Compound 122, 6-(1-Isopropyl-1H-pyrazol-3-yl)-N-(6-(2-methoxyethoxy)pyrimidin-4-yl)-5-methyl-2-(1-methyl-1H-imidazol-2-yl)pyrrolo[2,1-f][1,2,4]triazin-4-amine] | 50 to 74 | A* (1-25% activation)
Cc1c(-c2ccn(C)n2)cn2nc(-c3nccn3C)nc(Nc3cn(C(C)C)nn3)c12 [Compound 109, N-(1-Isopropyl-1H-1,2,3-triazol-4-yl)-5-methyl-2-(1-methyl-1H-imidazol-2-yl)-6-(1-methyl-1H-pyrazol-3-yl)pyrrolo[2,1-f][1,2,4]triazin-4-amine] | 50 to 74 | B* (26-49% activation)
Cc1c(-c2ccn(C3CC3)n2)cn2nc(-c3nccn3C)nc(O)c12 [Compound 134, 6-(1-Cyclopropyl-1H-pyrazol-3-yl)-5-methyl-2-(1-methyl-1H-imidazol-2-yl)pyrrolo[2,1-f][1,2,4]triazin-4-ol] | 1 to 24 | B (26-49% inhibition)
COc1ccnc(Nc2nc(-c3nccn3C)nn3cc(-c4cccnc4)c(-c4ccccn4)c23)c1 [Compound 166, N-(4-Methoxypyridin-2-yl)-2-(1-methyl-1H-imidazol-2-yl)-5-(pyridin-2-yl)-6-(pyridin-3-yl)pyrrolo[2,1-f][1,2,4]triazin-4-amine] | 75 to 100 | B* (26-49% activation)
CO[C@H]1C[C@@H](Nc2nc(-c3nccn3C)nn3cc(-c4cccnc4)c(C)c23)C1 [Compound 153, N-((1s,3s)-3-methoxy-cyclobutyl)-5-methyl-2-(1-methyl-1H-imidazol-2-yl)-6-(pyridin-3-yl)pyrrolo[2,1-f][1,2,4]triazin-4-amine] | 0 | A (1-25% inhibition)
COc1cc(-c2cn3nc(-c4nccn4C)nc(N[C@H]4C[C@@H](OC)C4)c3c2C)ccn1 [Compound 162, N-((1s,3s)-3-Methoxycyclobutyl)-6-(2-methoxypyridin-4-yl)-5-methyl-2-(1-methyl-1H-imidazol-2-yl)pyrrolo[2,1-f][1,2,4]triazin-4-amine] | 25 to 49 | A (1-25% inhibition)
COc1cc(Nc2nc(-c3nccn3C)nn3cc(-c4ccccn4)c(C)c23)ncn1 [Compound 94, N-(6-Methoxypyrimidin-4-yl)-5-methyl-2-(1-methyl-1H-imidazol-2-yl)-6-(pyridin-2-yl)pyrrolo[2,1-f][1,2,4]triazin-4-amine] | 50 to 74 | C* (46-84% activation)
COc1ccnc(Nc2nc(-c3nccn3C)nn3cc(-c4cccnc4)c(-c4cccnc4)c23)c1 [Compound 169, N-(4-methoxypyridin-2-yl)-2-(1-methyl-1H-imidazol-2-yl)-5,6-di(pyridin-3-yl)pyrrolo[2,1-f][1,2,4]triazin-4-amine] | 1 to 24 | B* (26-49% activation)
